According to PubChem BioAssay (NCI):
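Interpolation was linear, between the two tested concentrations surrounding the appropriate level; five concentrations were tested over 48 hours in 96-well plates. GI50 is the concentration that inhibits growth by half. TGI: concentration producing complete growth inhibition.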

Assays:
Test in all cases: growth of human tumour cells (NCI), 48 h
[1] = tested on: A498 renal
[2] = tested on: HCT-116 colon
[3] = tested on: HL-60(TB) leukemia
[4] = tested on: NCI-H226 lung
[5] = tested on: OVCAR-4 ovarian
[6] = tested on: SK-MEL-28 melanoma
[7] = tested on: SNB-19 CNS
[8] = tested on: SNB-75 CNS
[9] = tested on: SR leukemia
[10] = tested on: UO-31 renal

| Structure (SMILES) | GI50 [1] | TGI [1] | GI50 [2] | TGI [2] | GI50 [3] | TGI [3] | GI50 [4] | TGI [4] | GI50 [5] | TGI [5] | GI50 [6] | TGI [6] | GI50 [7] | TGI [7] | GI50 [8] | TGI [8] | GI50 [9] | TGI [9] | GI50 [10] | TGI [10] |
| --- | --- | --- | --- | --- | --- | --- | --- | --- | --- | --- | --- | --- | --- | --- | --- | --- | --- | --- | --- | --- |
| CCCc1cc(=O)oc2c(C(=O)CC(C)C)c(O)c(CC=C(C)C)c(O)c12 | 4.04 µM | 17.9 µM | 8.59 µM | > 50 µM | 7.01 µM | 22.9 µM | 11.8 µM | 38.5 µM | 10.7 µM | > 50 µM | 6.21 µM | > 50 µM | 14.5 µM | > 50 µM | 10.7 µM | 41.8 µM | 16.2 µM | > 50 µM | 12.1 µM | > 50 µM |
| O=C(CCCn1c2c(sc3ncccc32)c(=O)n2nnc(-c3ccccc3)c12)NCCc1cnc[nH]1 | 6.84 µM | 22.6 µM | 0.378 µM | 10.1 µM | 1.41 µM | 4.76 µM | 11.7 µM | 29.3 µM | 15.4 µM | 32.2 µM | 17 µM | 35 µM | 10.8 µM | 33.7 µM | 15.1 µM | 28.9 µM | 2.52 µM | 6.14 µM | 11.9 µM | 26.7 µM |
| Cc1cc2c3ccccc3n(C)c2c2c1C(=O)c1ccccc1C2=O |  | > 100 µM |  | 32.4 µM |  | 27.7 µM |  | 30.5 µM |  | 51.4 µM |  | 65 µM |  | 80.3 µM |  | > 100 µM |  | 22.5 µM |  | 27.4 µM |
| CCOP(=O)(CCP(=O)(OCC)OCC)OCC.C[CH2][Sn]([Cl])([Cl])[CH2]C | 17.4 µM | 26 µM | > 67.3 µM | > 100 µM | 56.6 µM | > 95.2 µM | 20.3 µM | 42.7 µM | > 48.7 µM | > 71.9 µM | 35.6 µM | > 61.9 µM | 31.2 µM | 49.9 µM | 26.4 µM | 69.3 µM | 38.2 µM | > 100 µM | > 54.2 µM | > 66.5 µM |
| CCSC1(SCC)CCN(C=NC(C)(C)C)C1 |  | > 100 µM |  | > 100 µM |  | > 100 µM |  | > 100 µM |  | > 100 µM |  | > 100 µM |  | > 100 µM |  | > 100 µM |  | > 100 µM |  | > 100 µM |
| Nc1nc(-c2ccccc2)c(-c2ccccc2)c(-c2nc(N)nc(-c3ccccc3)c2-c2ccccc2)n1 |  | > 100 µM |  | > 100 µM |  | > 100 µM |  | > 100 µM |  | > 100 µM |  | > 100 µM |  | > 100 µM |  | > 100 µM |  | > 100 µM |  | > 100 µM |
| O=C(CCc1nnc2s/c(=C\c3ccccc3)c(=O)n12)Nc1cc(Cl)ccc1Cl |  | > 100 µM |  | 66.9 µM |  | > 100 µM |  | > 100 µM |  | > 100 µM |  | > 100 µM |  | > 100 µM |  | > 100 µM |  | > 100 µM |  | > 100 µM |
| O=C1C2=C(C(=O)c3c(O)ccc(O)c31)N(c1ccc(N3CCOCC3)nc1)Cc1ccccc1O2 | 2.3 µM | 4.74 µM | 0.0966 µM | 0.332 µM | 0.17 µM | 0.616 µM | 1.91 µM | 7.81 µM | 0.282 µM | 1.05 µM | 0.275 µM | 0.785 µM | 1.45 µM | 3.6 µM | 1.24 µM | 7.27 µM | 0.108 µM | > 100 µM | 0.131 µM | 0.429 µM |
| O=C1Cc2cc(CCn3ccnc3)c(Cl)cc2N1 | 2.19 µM | 61.1 µM | 13.1 µM | > 100 µM | 63.2 µM | > 100 µM | > 100 µM | > 100 µM | 45 µM | > 100 µM | 29.7 µM | > 100 µM | 22.1 µM | > 100 µM | 21.6 µM | > 100 µM | 9.24 µM | > 100 µM | 58 µM | > 100 µM |
| CCN1CCC[C@H]1c1cc(O)c2c(c1OC)C[C@H]1C[C@H]3[C@H](N)C(=O)C(C(N)=O)=C(O)[C@@]3(O)C(=O)C1=C2O | 0.0315 µM | 0.2 µM | 0.0456 µM | 1.96 µM | 0.0379 µM | 0.238 µM | 0.216 µM | 3.96 µM | 0.0675 µM | 2.73 µM | 0.0668 µM | 1.26 µM | 0.113 µM | 2.04 µM | 0.0609 µM | 1.58 µM | 0.0436 µM | 0.94 µM | 0.0528 µM | 2.93 µM |
| COC(=O)[C@]12CC[C@@H](C)[C@H](C)[C@@H]1C1=CC[C@@H]3[C@@]4(C)C[C@@H](OC(=O)c5ccco5)[C@H](O)[C@@](C)(CO)[C@@H]4[C@H](O)C[C@@]3(C)[C@]1(C)CC2 | 2.5 µM | 7.75 µM | 1.88 µM | 3.41 µM | 2.08 µM | 5.46 µM | 2.3 µM | 6.05 µM | 3.41 µM | 13.5 µM | 2.17 µM | 4.71 µM | 3.47 µM | 15 µM | 2.38 µM | 11.7 µM | 1.99 µM | 4.68 µM | 2.02 µM | 7.42 µM |
| OC(c1ccccc1)(c1ccccc1)c1ccccn1 |  | > 100 µM |  | > 100 µM |  | > 100 µM |  | > 100 µM |  | > 100 µM |  | > 100 µM |  | > 100 µM |  | > 100 µM |  | > 100 µM |  | > 100 µM |
| COc1cccc(Nc2nc(NNC(=O)Cc3ccccc3)nc(NNC(=O)c3ccncc3)n2)c1 |  | > 100 µM |  | > 100 µM |  | > 100 µM |  | > 100 µM | > 100 µM | > 100 µM |  | > 100 µM |  | > 100 µM |  | > 100 µM |  | > 100 µM | 32.3 µM | > 100 µM |
| COc1cc2c(cc1OCCCCNC(=O)c1cc3ccccc3[nH]1)N=CC1CCCN1C2=O (configuration not stated) | 22.2 µM | 44.4 µM | 35.9 µM | > 100 µM | 7.97 µM | > 100 µM | 30.7 µM | > 100 µM | 28.2 µM | 94.4 µM | 37.5 µM | > 100 µM | 20.2 µM | > 100 µM | 33.9 µM | > 100 µM | > 100 µM | > 100 µM | 7.16 µM | 74.1 µM |
| O=c1[nH]c(=S)[nH]c2c1sc(=S)n2-c1ccccc1 |  | > 100 µM |  | > 100 µM |  | > 100 µM |  | > 100 µM |  | > 100 µM |  | > 100 µM |  | > 100 µM |  | > 100 µM |  | > 100 µM |  | > 100 µM |
| Nc1ccc2c(c1)C(=O)c1ccc(F)cc1-2 |  | > 100 µM |  | > 100 µM |  | > 100 µM |  | > 100 µM |  | > 100 µM |  | > 100 µM |  | > 100 µM |  | > 100 µM |  | > 100 µM |  | > 100 µM |
| CC(=O)Nc1ccc2nncnc2c1 |  | > 100 µM |  | > 100 µM |  | > 100 µM |  | > 100 µM |  | > 100 µM |  | > 100 µM |  | > 100 µM |  | > 100 µM |  | > 100 µM |  | > 100 µM |
| CC(C)=CC/C=C(/C)[C@H]1CC[C@]2(C)[C@@H]1CC[C@@H]1[C@@]3(C)CCC(=O)NC(C)(C)[C@@H]3CC[C@]12C | 23.6 µM | 67.5 µM | 15 µM | 34.5 µM | 18.2 µM | 49.3 µM | 19.1 µM | 43.1 µM | 21.9 µM | 75 µM | 16.7 µM | 31.6 µM | 25 µM | 72.4 µM | 20.9 µM | 55.1 µM | 17.4 µM | 51.8 µM | 15.6 µM | 29.2 µM |
